Biological target: T1, KRAS G12C 1-169, his-tagged protein, GDP-loaded (Homo sapiens, UniProt P01116, G12C)
T1 construct: KRAS G12C 1-169, his-tagged protein, GDP-loaded
Assay: Biochemical assay: covalent binding to KRAS G12C analyzed by mass spectrometry; further: test concentration or dose not given here
Conditions: compounds 48-246, measured at 2 h

T1 sequence (P01116 1-169 isoform P01116-2 G12C): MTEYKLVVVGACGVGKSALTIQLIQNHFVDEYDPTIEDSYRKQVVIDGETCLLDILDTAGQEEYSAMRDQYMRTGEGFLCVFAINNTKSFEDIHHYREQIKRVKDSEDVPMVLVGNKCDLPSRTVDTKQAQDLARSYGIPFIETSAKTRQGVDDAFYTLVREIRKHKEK

| SMILES | Binding % |
| --- | --- |
| C=CC(=O)N1CCN(c2ncnc3cc(-c4cccc5ccccc45)c(Cl)cc23)CC1 [Compound I-123, 1-(4-(6-chloro-7-(naphthalen-1-yl)quinazolin-4-yl)piperazin-1-yl)prop-2-en-1-one] | ++++ (++++indicates binding activity greater than 75%) |
| C=CC(=O)N1CCN(c2ncnc3cc(-c4ccccc4F)c(O)cc23)CC1 [Compound I-163, 1-(4-(7-(2-fluorophenyl)-6-hydroxyquinazolin-4-yl)piperazin-1-yl)prop-2-en-1-one] | + (+indicates binding activity from 5% to 25%) |
| C=CC(=O)N1CCN(c2ncnc3cc(-c4cccs4)c(Cl)cc23)CC1 [Compound I-185, 1-(4-(6-chloro-7-(thiophen-2-yl)quinazolin-4-yl)piperazin-1-yl)prop-2-en-1-one] | ++ (++indicates binding activity greater than 25% and up to 50%) |
| CN(C)C/C=C/C(=O)N1CCN(c2ncnc3c(F)c(-c4ccccc4F)c(-c4ccccc4F)cc23)CC1 [Compound I-230, (E)-4-(dimethylamino)-1-(4-(8-fluoro-6,7-bis(2-fluorophenyl)quinazolin-4-yl)piperazin-1-yl)but-2-en-1-one] | + (+indicates binding activity from 5% to 25%) |
| C=CC(=O)NC1CCN(c2ncnc3cc(-c4ccccc4)c(Cl)cc23)CC1 [Compound I-89, N-(1-(6-chloro-7-phenylquinazolin-4-yl)piperidin-4-yl)acrylamide] | + (+indicates binding activity from 5% to 25%) |
| C=CC(=O)N1CCN(c2c(C#N)cnc3c(F)c(-c4ccccc4F)c(Cl)cc23)CC1 [Compound I-242, 4-(4-acryloylpiperazin-1-yl)-6-chloro-8-fluoro-7-(2-fluorophenyl)quinoline-3-carbonitrile] | ++++ (++++indicates binding activity greater than 75%) |
| CN(C)C/C=C/C(=O)N1CCN(c2ncnc3cc(-c4ccccc4)c(Cl)cc23)CC1 [Compound I-82, (E)-1-(4-(6-chloro-7-phenylquinazolin-4-yl)piperazin-1-yl)-4-(dimethylamino)but-2-en-1-one] | + (+indicates binding activity from 5% to 25%) |
| C=CC(=O)N1CCN(c2ncnc3cc(-c4ccccc4C4(C)CC4)c(Cl)cc23)CC1 [Compound I-222, 1-(4-(6-chloro-7-(2-(1-methylcyclopropyl)phenyl)quinazolin-4-yl)piperazin-1-yl)prop-2-en-1-one] | +++ (+++indicates binding activity greater than 50% and up to 75%) |
| C=CC(=O)N1CCN(c2ncnc3cc(-c4cc(O)c(F)cc4F)c(Cl)cc23)CC1 [Compound I-206, 1-(4-(6-chloro-7-(2,4-difluoro-5-hydroxyphenyl)quinazolin-4-yl)piperazin-1-yl)prop-2-en-1-one] | ++++ (++++indicates binding activity greater than 75%) |
| C=CC(=O)N1CCN(c2ncnc3cc(-c4c(O)cccc4C(F)(F)F)c(Cl)cc23)CC1 [Compound I-233, 1-(4-(6-chloro-7-(2-hydroxy-6-(trifluoromethyl)phenyl)quinazolin-4-yl)piperazin-1-yl)prop-2-en-1-one] | +++ (+++indicates binding activity greater than 50% and up to 75%) |

Same assay, conditions: compounds 247-342, measured at 30 min

| SMILES | Binding % |
| --- | --- |
| C#CC1CN(c2ncnc3c(F)c(-c4ccccc4F)c(Cl)cc23)CCN1C(=O)C=C (stereo not shown) [Compound I-252, 1-(4-(6-chloro-8-fluoro-7-(2-fluorophenyl)quinazolin-4-yl)-2-ethynylpiperazin-1-yl)prop-2-en-1-one] | ++++ (++++indicates binding activity greater than 75%) |
| O=C(C#CCO)N1CCN(c2ncnc3cc(-c4ccc(F)cc4F)c(Cl)cc23)CC1 [Compound I-247, 1-(4-(6-chloro-7-(2,4-difluorophenyl)quinazolin-4-yl)piperazain-1-yl)-4-hydoxybut-2-yn-1-one] | +++ (+++indicates binding activity greater than 50% and up to 75%) |
| C=CC(=O)N1CCN(c2c(C#N)cnc3c(F)c(-c4c(C)ccc5[nH]ncc45)c(Cl)cc23)CC1 [Compound I-293, 4-(4-acryloylpiperazin-1-yl)-6-chloro-8-fluoro-7-(5-methyl-1H-indazol-4-yl)quinoline-3-carbonitrile] | ++++ (++++indicates binding activity greater than 75%) |
| C=CC(=O)N1CCN(c2ncnc3cc(-c4c(O)cccc4C#N)c(Cl)cc23)CC1 [Compound I-265, 2-(4-(4-acryloylpiperazin-1-yl)-6-chloroquinazolin-7-yl)-3-hydroxybenzonitrile] | + (+indicates binding activity from 5% to 25%) |
| C=CC(=O)N1CCN(c2ncnc3c(F)c(-c4c(C)ccc5cn[nH]c45)c(F)cc23)CC1 [Compound 298, 1-(4-(6,8-difluoro-7-(6-methyl-1H-indazol-7-yl)-quinazolin-4-yl)piperazin-1-yl)prop-2-en-1-one] | ++ (++indicates binding activity greater than 25% and up to 50%) |
| C=CC(=O)N1CCN(c2nc(-c3ccn[nH]3)nc3c(F)c(-c4c(C)ccc5[nH]ncc45)c(Cl)cc23)CC1 [Compound 309, 1-(4-(6-chloro-8-fluoro-7-(5-methyl-1H-indazol-4-yl)-2-(1H-pyrazol-5-yl)quinazolin-4-yl)piperazin-1-yl)prop-2-en-1-one] | +++ (+++indicates binding activity greater than 50% and up to 75%) |
| C=CC(=O)N1CCN(c2ncnc3cc(-c4c(C)ccc5cn[nH]c45)c(Cl)cc23)CC1 [Compound I-268, 1-(4-(6-chloro-7-(6-methyl-1H-indazol-7-yl)quinazolin-4-yl)piperazin-1-yl)prop-2-en-1-one] | +++ (+++indicates binding activity greater than 50% and up to 75%) |
| C=CC(=O)N1CCN(c2ncnc3c(OC)c(-c4c(O)cccc4F)c(Cl)cc23)CC1 [Compound 313, 1-(4-(6-chloro-7-(2-fluoro-6-hydroxyphenyl)-8-methoxyquinazolin-4-yl)piperazin-1-yl)prop-2-en-1-one] | +++ (+++indicates binding activity greater than 50% and up to 75%) |
| C=CC(=O)N1CCN(c2nc(OCCN(C)C)nc3c(F)c(-c4c(O)cccc4F)c(Cl)cc23)CC1 [Compound 341, 1-(4-(6-chloro-2-(2-(dimethylamino)ethoxy)-8-fluoro-7-(2-fluoro-6-hydroxyphenyl)quinazolin-4-yl)piperazin-1-yl)prop-2-en-1-one] | ++++ (++++indicates binding activity greater than 75%) |
| C=CC(=O)N1CCN(c2ncnc3c(F)c(-c4cc(-c5c[nH]cn5)ccc4F)c(Cl)cc23)CC1 [Compound I-281, 1-(4-(6-chloro-8-fluoro-7-(2-fluoro-5-(1H-imidazol-4-yl)phenyl)quinazolin-4-yl)piperazin-1-yl)prop-2-en-1-one] | ++ (++indicates binding activity greater than 25% and up to 50%) |
| Cc1ccc2[nH]ncc2c1-c1c(Cl)cc2c(N3CCN(C(=O)/C=C/CN(C)C)CC3)ncnc2c1F [Compound I-295, (E)-1-(4-(6-chloro-8-fluoro-7-(5-methyl-1H-indazol-4-yl)quinazolin-4-yl)piperazin-1-yl)-4-(dimethylamino)but-2-en-1-one] | + (+indicates binding activity from 5% to 25%) |
| C=CC(=O)N1CCN(c2nc(-c3cn[nH]c3)nc3c(F)c(-c4c(C)ccc5[nH]ncc45)c(Cl)cc23)CC1 [Compound 304, 1-(4-(6-chloro-8-fluoro-7-(5-methyl-1H-indazol-4-yl)-2-(1H-pyrazol-4-yl)quinazolin-4-yl)piperazin-1-yl)prop-2-en-1-one] | ++ (++indicates binding activity greater than 25% and up to 50%) |
| Cc1ccc2[nH]ncc2c1-c1c(Cl)cc2c(N3CCN(C(=O)/C=C/CO)CC3)ncnc2c1F [Compound 315, (E)-1-(4-(6-chloro-8-fluoro-7-(5-methyl-1H-indazol-4-yl)quinazolin-4-yl)piperazin-1-yl)-4-hydroxybut-2-en-1-one] | + (+indicates binding activity from 5% to 25%) |

Same assay, conditions: determined at 2 hrs

| SMILES | Binding % |
| --- | --- |
| C=CC(=O)N1CCN(C(=O)c2cc(Cl)c(-c3ccccc3)cc2O)CC1 [III-42, 1-(4-(2-Chloro-5-hydroxy-[1,1′-biphenyl]-4-carbonyl)piperazin-1-yl)prop-2-en-1-one] | + (+indicates binding activity from 5% to 20%) |
| C=CC(=O)N1CC(N2CCN(C(=O)Cc3c[nH]c4cc(Cl)c(Cl)cc34)CC2)C1 [II-61, 1-(3-(4-(2-(5,6-Dichloro-1H-indol-3-yl)acetyl)piperazin-1-yl)azetidin-1-yl)prop-2-en-1-one] | + (+indicates binding activity from 5% to 20%) |
| C=CC(=O)N1CC(N2CCN(C(=O)CNc3cc(C4CC4)c(Cl)cc3C#N)CC2)C1 [II-71, 2-((2-(4-(1-Acryloylazetidin-3-yl)piperazin-1-yl)-2-oxoethyl)amino)-5-chloro-4-cyclopropylbenzonitrile] | + (+indicates binding activity from 5% to 20%) |

Same assay, conditions: determined at 24 hrs

| SMILES | Binding % |
| --- | --- |
| C=CC(=O)N1CC(N2CCN(C(=O)CNc3cc(C#N)c(Cl)cc3Cl)CC2)C1 [II-9, 5-(2-(4-(1-acryloylazetidin-3-yl)piperazin-1-yl)-2-oxoethylamino)-2,4-dichlorobenzonitrile] | + (+indicates binding activity from 5% to 15%) |
| C=CC(=O)N1CC(N2CCN(C(=O)CNc3cc(C(F)(F)F)c(Cl)cc3OC)CC2)C1 [II-37, 1-(3-(4-(2-(4-chloro-2-methoxy-5-(trifluoromethyl)-phenylamino)acetyl)-piperazin-1-yl)azetidin-1-yl)prop-2-en-1-one] | ++ (++indicates binding activity greater than 15% and up to 25%) |
| C=CC(=O)N1CCN(C2CN(C(=O)CNc3cc(Cl)c(Cl)cc3O)C2)CC1 [II-39, 1-(4-(1-(2-(4,5-dichloro-2-hydroxyphenyl-amino)acetyl)azetidin-3-yl)piperazin-1-yl)prop-2-en-1-one] | +++ (+++indicates binding activity greater than 25% and up to 50%) |
| C=CC(=O)N1CCC(N2CCN(C(=O)CNc3cc(I)c(Cl)cc3O)CC2)C1 (stereo not shown) [II-11] | ++++ (++++indicates binding activity greater than 50%) |
| C=CC(=O)N1CCC(N2CCN(C(=O)CNc3cc(C)c(Cl)cc3O)CC2)C1 (stereo not shown) [II-7, 1-(3-(4-(2-(4-chloro-2-hydroxy-5-methylphenylamino)-acetyl)piperazin-1-yl)pyrrolidin-1-yl)prop-2-en-1-one] | ++ (++indicates binding activity greater than 15% and up to 25%) |

Source: patent US10111874B2, “Combination therapies for treatment of cancer” (Araxes Pharma LLC, priority 2014, dated 2018)
